Assay results as given in PMC5031577, “Preclinical evaluation of [^68Ga]NOTA-pentixafor for PET imaging of CXCR4 expression in vivo — a comparison to [^68Ga]pentixafor” (EJNMMI Research, 2016).
Read-outs that look alike come from different tables or passages of the source. Square brackets hold non-standard residues; d marks the D form. Side chains are listed from the residue outwards. Peptide text beside a SMILES is read from it. * marks the point of attachment. DOTA = O=C(O)CN1CCN(CC(=O)O)CCN(CC(=O)*)CCN(CC(=O)O)CC1; NOTA = O=C(O)CN1CCN(CC(=O)O)CCN(CC(=O)*)CC1; 2Nal = N[C@@H](Cc1ccc2ccccc2c1)C(=O)O; dNMeOrn = CN[C@H](CCCN)C(=O)O; 4Amb = NCc1ccc(C(=O)O)cc1

Legend:
[1] = Determination of tracer lipophilicity (logP); assay type: physicochemical; details: determined as published (method ref 22)
Experimental: General procedures and syntheses of the peptides are described in a recently reported protocol. Determination of tracer lipophilicity and serum stability as well as in vitro studies were performed as recently published. ^68Ga-labeling of peptides was performed as described using a fully automated system (Scintomics GmbH); briefly, the ^68Ge/^68Ga generator eluate fractions (1.25 mL) were reacted with 5 nmol of peptide. The mixture was buffered with 0.6 mL HEPES (pH = 7.4) to a final pH of 3–4 and heated to 95 °C for 5 min. After purification via one Sep-Pak C8 light cartridge, the ethanolic product fraction was diluted with PBS and used as such for the experiments.

[2] = Metabolite analysis of mouse plasma after i.v. injection; assay type: in vivo; details: CB17 SCID mouse, 50 MBq i.v., plasma at 60 min p.i., RP-HPLC with γ-counter
Experimental: All animal studies were conducted in accordance with the German Animal Welfare Act (Deutsches Tierschutzgesetz, approval No. 55.2-1-54-2532-71-13). For metabolite analysis, 50 MBq of [^68Ga]NOTA-pentixafor in a total volume of 200 μL of PBS was injected into the tail vein of a CB17 SCID mouse; the animal was sacrificed at 1 h p.i. and blood was collected. After sample preparation, as described in [24], the plasma samples were analyzed by reversed phase (RP)-HPLC and eluate fractions were analyzed using a γ-counter.

[3] = Biodistribution in Daudi lymphoma xenograft bearing SCID mice; assay type: in vivo, mouse; details: female, CB-17 SCID, mouse, iv, total radioactivity, mean ± SD
Experimental: (§1) For PET (n = 3) and biodistribution studies (n = 5), an average of 15.2 MBq [^68Ga]NOTA-pentixafor (100 μL in PBS, 145 pmol, 171 ng) with a specific activity (AS) of 104 GBq/μmol was injected intravenously into the tail vein of isofluorane anesthesized female Daudi lymphoma-bearing SCID mice. […] After static PET imaging for 15 min (Inveon Siemens μPET scanner), the mice were sacrificed (90 min p.i.), and tissues and organs of interest were dissected, weighed, and counted for radioactivity in a γ-counter. The percentage of injected dose per gram of tissue (% ID/g) was calculated; data are shown as mean ± SD.

[4] = tested on: Daudi xenograft bearing CB-17 SCID mice; experiment: as above; assay type: in vivo, mouse; details: tracer only, i.v., 1.5 h p.i., mean ± SD
Experimental: as §1

[5] = set-up: method as in PMID 22045709; details: at 30 min p.i.; cited from earlier work
CXCR4 = details: Jurkat T cells, [^125I]FC131 radioligand; natGa-complexed peptides and metal-free precursors; determined previously; cited from earlier work
Source text: Table 1 Comparison of the lipophilicity and the in vitro CXCR4 targeting characteristics of [^68Ga]NOTA-pentixafor and [^68Ga]pentixafor | column: IC50 (nM)

[6] = adrenals, 15.2 MBq, tracer only, i.v., 1.5 h p.i., read-out: Adrenals uptake
[7] = heart, 15.2 MBq, tracer only, i.v., 1.5 h p.i., read-out: Heart uptake
[8] = intestine, 15.2 MBq, tracer only, i.v., 1.5 h p.i., read-out: Intestine uptake
[9] = kidney, 15.2 MBq, tracer only, i.v., 1.5 h p.i., read-out: Kidney uptake
[10] = liver, 15.2 MBq, tracer only, i.v., 1.5 h p.i., read-out: Liver uptake
[11] = lung, 15.2 MBq, tracer only, i.v., 1.5 h p.i., read-out: Lung uptake
[12] = muscle, 15.2 MBq, tracer only, i.v., 1.5 h p.i., read-out: Muscle uptake
[13] = pancreas, 15.2 MBq, tracer only, i.v., 1.5 h p.i., read-out: Pancreas uptake
[14] = spleen, 15.2 MBq, tracer only, i.v., 1.5 h p.i., read-out: Spleen uptake
[15] = stomach, 15.2 MBq, tracer only, i.v., 1.5 h p.i., read-out: Stomach uptake

logP [1]	tissue uptake at 1.5 h [3, 6] [%ID/g]	tissue uptake at 1.5 h [3, 7] [%ID/g]	tissue uptake at 1.5 h [3, 8] [%ID/g]	tissue uptake at 1.5 h [3, 9] [%ID/g]	tissue uptake at 1.5 h [3, 10] [%ID/g]	tissue uptake at 1.5 h [3, 11] [%ID/g]	tissue uptake at 1.5 h [3, 12] [%ID/g]	tissue uptake at 1.5 h [3, 13] [%ID/g]	tissue uptake at 1.5 h [3, 14] [%ID/g]	tissue uptake at 1.5 h [3, 15] [%ID/g]	Compound	further results
−2.36	0.52 ± 0.3	0.34 ± 0.19	1.89 ± 0.83	2.71 ± 1.06	2.3 ± 0.88	0.73 ± 0.25	0.13 ± 0.1	0.12 ± 0.05	0.44 ± 0.22	0.45 ± 0.21	CN1C(=O)[C@@H](Cc2ccc(O)cc2)NC(=O)CNC(=O)[C@H](Cc2ccc3ccccc3c2)NC(=O)[C@H](CCCNC(=N)N)NC(=O)[C@H]1CCCNC(=O)c1ccc(CNC(=O)CN2CCN(CC(=O)O)CCN(CC(=O)O)CC2)cc1 [[^68Ga]NOTA-pentixafor, metal not drawn] (cyclo([2Nal]G[dY][dNMeOrn]([4Amb-NOTA])R))	radiometabolites in mouse plasma (metabolic stability) [2]: complete absence of radiometabolites; tissue uptake at 1.5 h ([3]; adrenals, co-injection of 50 μg AMD3100, n = 3, 1.5 h p.i., read-out: Adrenals uptake): 0.48 ± 0.15 %ID/g; tissue uptake at 1.5 h ([3]; blood, 15.2 MBq, tracer only, i.v., 1.5 h p.i., read-out: Blood uptake): 0.65 ± 0.41 %ID/g; tissue uptake at 1.5 h ([3]; blood, co-injection of 50 μg AMD3100, n = 3, 1.5 h p.i., read-out: Blood uptake): 0.62 ± 0.26 %ID/g; tissue uptake at 1.5 h ([3]; bone, 15.2 MBq, tracer only, i.v., 1.5 h p.i., read-out: Bone uptake): 0.25 ± 0.18 %ID/g; tissue uptake at 1.5 h ([3]; bone, co-injection of 50 μg AMD3100, n = 3, 1.5 h p.i., read-out: Bone uptake): 0.16 ± 0.07 %ID/g; tissue uptake at 1.5 h ([3]; gallbladder, 15.2 MBq, tracer only, i.v., 1.5 h p.i., read-out: Gallbladder uptake): 3.61 ± 3 %ID/g; tissue uptake at 1.5 h ([3]; gallbladder, co-injection of 50 μg AMD3100, n = 3, 1.5 h p.i., read-out: Gallbladder uptake): 5.14 ± 2.24 %ID/g; tissue uptake at 1.5 h ([3]; heart, co-injection of 50 μg AMD3100, n = 3, 1.5 h p.i., read-out: Heart uptake): 0.36 ± 0.14 %ID/g; tissue uptake at 1.5 h ([3]; intestine, co-injection of 50 μg AMD3100, n = 3, 1.5 h p.i., read-out: Intestine uptake): 3.97 ± 0.92 %ID/g; tissue uptake at 1.5 h ([3]; kidney, co-injection of 50 μg AMD3100, n = 3, 1.5 h p.i., read-out: Kidney uptake): 3.56 ± 1.03 %ID/g; tissue uptake at 1.5 h ([3]; liver, co-injection of 50 μg AMD3100, n = 3, 1.5 h p.i., read-out: Liver uptake): 2.02 ± 0.76 %ID/g; tissue uptake at 1.5 h ([3]; lung, co-injection of 50 μg AMD3100, n = 3, 1.5 h p.i., read-out: Lung uptake): 0.95 ± 0.38 %ID/g; tissue uptake at 1.5 h ([3]; muscle, co-injection of 50 μg AMD3100, n = 3, 1.5 h p.i., read-out: Muscle uptake): 0.13 ± 0.05 %ID/g; tissue uptake at 1.5 h ([3]; pancreas, co-injection of 50 μg AMD3100, n = 3, 1.5 h p.i., read-out: Pancreas uptake): 0.16 ± 0.05 %ID/g; tissue uptake at 1.5 h ([3]; spleen, co-injection of 50 μg AMD3100, n = 3, 1.5 h p.i., read-out: Spleen uptake): 0.54 ± 0.19 %ID/g; tissue uptake at 1.5 h ([3]; stomach, co-injection of 50 μg AMD3100, n = 3, 1.5 h p.i., read-out: Stomach uptake): 0.58 ± 0.24 %ID/g
−2.90	3.68 ± 0.72	0.58 ± 0.17	0.7 ± 0.2	1.65 ± 0.91	2.05 ± 0.27	1.32 ± 0.29	0.19 ± 0.06	1.06 ± 0.22	0.3 ± 0.1	0.48 ± 0.08	CN1C(=O)[C@@H](Cc2ccc(O)cc2)NC(=O)CNC(=O)[C@H](Cc2ccc3ccccc3c2)NC(=O)[C@H](CCCNC(=N)N)NC(=O)[C@H]1CCCNC(=O)c1ccc(CNC(=O)CN2CCN(CC(=O)O)CCN(CC(=O)O)CCN(CC(=O)O)CC2)cc1 [[^68Ga]pentixafor, metal not drawn] (cyclo([dY][dNMeOrn]([4Amb-DOTA])R[2Nal]G))	Intestine uptake [4]: 0.67 ± 0.21 % ID/g; radiometabolites in mouse plasma (metabolic stability) [5]: complete absence of radiometabolites
											Pentixafor	IC50 (CXCR4): 0.102 ± 0.017 µM
